How the values were obtained:
[1] = system: metastatic NSCLC; assay: MYSTIC phase 3 study, efficacy by blood TMB (GuardantOMNI) or tissue TMB (FoundationOne) subgroup; format: in vivo, human
Description: (§1) Patients continued treatment until objective disease progression (according to RECIST v1.1), development of an adverse event (AE) that necessitated treatment discontinuation, or withdrawal of consent.
Blood TMB was evaluated using the GuardantOMNI next-generation sequencing platform (Guardant Health, Redwood City, Calif., USA) comprised of 500 genes (FIG. 1).
The OMNI TMB algorithm incorporates somatic single nucleotide variants (SNVs), short insertions/deletions (indels), copy number amplifications and fusions, and is optimized to calculate TMB on blood samples with low cell-free circulating tumor DNA content (Merck Sharp & Dohme. Keytruda® (pembrolizumab) Summary of Product Characteristics. Updated March 2019. Available at: https://www.medicines.org.uk/emc/product/6947/smpc (last accessed May 1, 2019); Reck et al., N. Engl. J. Med. 375(19): 1823-33 (2016)). Both synonymous and nonsynonymous SNVs and indels were included, with removal of those with low shedding values, low diversity, and associations with clonal hematopoiesis, germline and oncogenic driver or drug resistance mechanisms. Tissue TMB was evaluated using the FoundationOne tissue next-generation sequencing platform (Foundation Medicine, Cambridge, Mass., USA). The algorithm has been described previously (Merck Sharp & Dohme. Keytruda® (pembrolizumab) prescribing information. Updated April 2019. Available at: https://www.merck.com/product/usa/pi_circulars/k/keytruda/keytruda_pi.pdf (last accessed May 1, 2019)).
(§2) Efficacy was analyzed on an intention-to-treat (ITT) basis, including all randomized patients or subsets of this population based on PD-L1 expression or TMB levels. Safety analyses included all patients who received at least one dose of study treatment (as-treated population).
(§3) Odds ratios and 95% CI for comparing ORR between treatment groups were calculated using a logistic regression model, adjusted for the same factors as PFS and OS. Prespecified TMB analysis was performed using an unstratified log-rank test, with HRs and 95% Cis estimated using a Cox proportional hazards model.

[2] = MYSTIC phase 3 study, safety (adverse events, as-treated population); details: in vivo
Description: as §1
(§4) Tumor response was assessed by BICR using RECIST v1.1, with imaging performed every 6 weeks for the first 48 weeks, then every 8 weeks, until confirmed disease progression. Patients were followed for survival. AEs were graded according to National Cancer Institute Common Terminology Criteria for Adverse Events version 4.03.
as §2

[3] = system: metastatic NSCLC; assay: MYSTIC phase 3 study, efficacy (OS, PFS, tumor response) in ITT population and PD-L1 expression subgroups; format: in vivo, human; details: for ORR, %: BICR per RECIST v1.1
Description: Adult patients with Stage IV NSCLC were eligible provided they had not previously received systemic therapy for advanced/metastatic NSCLC, had Eastern Cooperative Oncology Group performance status 0-1, measurable disease according to Response Evaluation Criteria in Solid Tumors version 1.1 (RECIST v1.1) (Chaft et al., Cancer Res. 78(13 Suppl) (abstr. CT113) (2018)), and known tumor PD-L1 expression status prior to randomization. Patients with sensitizing EGFR mutations or ALK rearrangements, and those with symptomatic, unstable brain metastases were excluded.
as §1
Investigation of the relationship between biomarkers, including TMB, and clinical outcomes were also determined.
PD-L1 expression was evaluated using multiple cut-offs at a central laboratory using the VENTANA PD-L1 (SP263) immunohistochemistry (IHC) assay (Ventana Medical Systems, Tucson, Ariz., USA) (Rebelatto et al., Diagn. Pathol. 11(1): 95 (2016)). Tumor samples obtained within 3 months prior to screening were permitted.
as §4, §2
To control the type I error at 5% (two-sided), a hierarchical multiple testing procedure with gatekeeping strategy was used across endpoints, analysis populations, and treatment regimens. The primary PFS analysis was performed using a stratified log-rank test adjusting for histology, with hazard ratio (HR) and 99.5% confidence interval (CI) estimated using a Cox proportional hazards model. […] Survival curves were generated using the Kaplan-Meier method.
as §3

[4] = system: mNSCLC; assay: MYSTIC ctDNA mutation analysis (STK11, KEAP1, ARID1A), overall survival by mutation status; format: in vivo, human
Description: This example investigated associations between selected mutations and survival outcomes. Circulating tumour DNA from baseline plasma specimens was profiled using the GuardantOMNI platform. Samples were available from 1003 patients (89.7% of ITT population). 943 samples were mutation-evaluable. Survival outcomes were analysed in patients with or without non-synonymous somatic mutations in STK11, KEAP1, or ARID1A, or KRAS.

[5] = system: xenograft model; details: via a T-cell dependent mechanism; cited from earlier work
[6] = biological target: PD-L1 (Homo sapiens, UniProt Q9NZQ7); details: in vitro; cited from earlier work
Sequence of PD-L1 (Q9NZQ7 19-290): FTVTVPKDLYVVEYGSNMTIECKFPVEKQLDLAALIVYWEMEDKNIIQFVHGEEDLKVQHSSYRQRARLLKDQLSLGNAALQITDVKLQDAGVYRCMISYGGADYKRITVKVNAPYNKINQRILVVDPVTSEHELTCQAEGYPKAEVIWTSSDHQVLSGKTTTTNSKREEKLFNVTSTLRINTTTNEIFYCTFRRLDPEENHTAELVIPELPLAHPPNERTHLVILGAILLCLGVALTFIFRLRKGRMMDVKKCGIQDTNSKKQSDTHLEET

[7] = system: natural killer (NK) ADCC activity; details: cited from earlier work
[8] = biological target: T1, human CTLA-4 (Homo sapiens, UniProt P16410); details: specific for human CTLA-4; cited from earlier work
T1 sequence (P16410 36-223): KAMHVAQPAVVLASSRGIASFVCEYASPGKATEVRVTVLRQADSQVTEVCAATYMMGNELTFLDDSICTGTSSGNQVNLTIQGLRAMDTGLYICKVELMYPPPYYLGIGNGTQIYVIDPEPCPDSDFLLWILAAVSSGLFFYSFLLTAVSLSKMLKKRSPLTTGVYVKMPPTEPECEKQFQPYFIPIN

[9] = system: Fc receptors; details: cited from earlier work

durvalumab
ORR, % ([1]; Blood TMB <20 mut/Mb): (20.6) % | Remaining in response (%) at 6 months ([1]; Blood TMB <20 mut/Mb): 64.0% | Remaining in response (%) at 12 months ([1]; Blood TMB <20 mut/Mb): 59.1% | ORR, % ([1]; Blood TMB ≥20 mut/Mb): (29.9) % | Remaining in response (%) at 6 months ([1]; Blood TMB ≥20 mut/Mb): 86.5% | Remaining in response (%) at 12 months ([1]; Blood TMB ≥20 mut/Mb): 80.3% | HR for death versus chemotherapy ([1]; Tissue TMB ≥10 mut/Mb): 0.70 | median OS ([1]; Tissue TMB ≥10 mut/Mb): 18.6 months | median OS ([1]; bTMB ≥20 mut/Mb): 12.6 months | unadjusted HR for death vs. chemotherapy ([1]; bTMB ≥20 mut/Mb): 0.72 | All-grade treatment-related AEs (TRAEs), % of patients [2]: 54.2% | Immune-mediated AEs of grade 3 or 4, % of patients [2]: 4.1% | Immune-mediated AEs, % of patients [2]: 13.6% | Rates of grade ≥3 TRAEs [2]: 14.9% | TRAEs leading to discontinuation [2]: 5.4% | Treatment-related deaths, % [2]: 0.5% | Treatment-related deaths, patients [2]: 2 patients | Hazard ratio (95% CI) for death compared with chemotherapy ([3]; ITT population): 0.96 | Median overall survival, months (95% CI) ([3]; ITT population): 12.3 months | Hazard ratio (95% CI) for death compared with chemotherapy ([3]; PD-L1 TC <1%): 1.18 | Median overall survival, months (95% CI) ([3]; PD-L1 TC <1%): 10.1 months | Hazard ratio (95% CI) for death compared with chemotherapy ([3]; PD-L1 TC ≥1%): 0.88 | Median overall survival, months (95% CI) ([3]; PD-L1 TC ≥1%): 14.6 months | 24-month OS rate ([3]; PD-L1 TC ≥25%): 38.3% | Best objective response, Complete response, % ([3]; PD-L1 TC ≥25%): (0.6) % | Best objective response, Not evaluable, % ([3]; PD-L1 TC ≥25%): (1.2) % | Best objective response, Partial response, % ([3]; PD-L1 TC ≥25%): (35.0) % | Best objective response, Progressive disease, % ([3]; PD-L1 TC ≥25%): (32.5) % | Best objective response, Stable disease ≥ 6 weeks, % ([3]; PD-L1 TC ≥25%): (30.7) % | HR for death vs. chemotherapy ([3]; PD-L1 TC ≥25%): 0.76 | Remaining in response (%) at 6 months ([3]; PD-L1 TC ≥25%): 66.9% | Remaining in response (%) at 12 months ([3]; PD-L1 TC ≥25%): 61.3% | difference in PFS versus chemotherapy group ([3]; PD-L1 TC ≥25%): no statistically significant difference | median OS ([3]; PD-L1 TC ≥25% (primary analysis population)): 16.3 months | ORR, % ([3]; PD-L1 TC ≥25%): 35.6% | ORR, % ([3]; PD-L1 TC ≥25%, listed as Durvalumab Monotherapy): (35.6) % | Median DOR, months (95% CI) ([3]; PD-L1 TC ≥25%, Kaplan-Meier, NR = not reached): NR (9.7-NR) | Hazard ratio (95% CI) for death compared with chemotherapy ([3]; PD-L1 TC ≥25-49%): 0.78 | Median overall survival, months (95% CI) ([3]; PD-L1 TC ≥25-49%): 11.1 months | Hazard ratio (95% CI) for death compared with chemotherapy ([3]; PD-L1 TC ≥50%): 0.76 | Median overall survival, months (95% CI) ([3]; PD-L1 TC ≥50%): 18.3 months | Estimated odds ratio vs. chemotherapy (95% CI) ([3]; in vivo): 0.91 | Number of events/patients ([3]; overall survival, ITT population): 278/374 | Number of patients ([3]; overall survival, PD-L1 TC <1%): 84/95 | Number of patients ([3]; overall survival, PD-L1 TC ≥1%): 194/279 | Number of patients ([3]; overall survival, PD-L1 TC ≥25-49%): 33/45 | Number of patients ([3]; overall survival, PD-L1 TC ≥50%): 75/118 | median OS (mOS) ([4]; patients with ARID1Am): 8.6 months | median OS (mOS) ([4]; patients with ARID1Awt): 13.7 months | median OS (mOS) ([4]; patients with KEAP1m): 7.6 months | median OS (mOS) ([4]; patients with KEAP1wt): 14.6 months | median OS (mOS) ([4]; patients with STK11m): 10.3 months | median OS (mOS) ([4]; patients with STK11wt): 13.3 months | tumor growth in a xenograft model [5]: inhibits tumor growth | PD-L1-mediated suppression of human T-cell activation [6]: relieve PD-L1-mediated suppression

tremelimumab
induction of natural killer (NK) ADCC activity [7]: does not induce | cross-reactivity to related human proteins [8]: no cross-reactivity | specific binding to Fc receptors [9]: minimal specific binding
